From US5407824A, “Recombinant coryneform bacterium for producing L-tryptophan” (Kyowa Hakko Kogyo Co., Ltd., priority 1989, dated 1995)

Assays:
Assay type in all cases: biochemical
[1] = tested on: 3-deoxy-D-arabino-heptulosonate-7-phosphate synthase (DS) of the transformant carrying pCGDS1; assay: DS activity, inhibition by phenylalanine and tyrosine, transformant carrying pCGDS1; conditions: Corynebacterium glutamicum ATCC 13032 carrying pCGDS1 (DS gene from K38)
Method: DS activities of Corynebacterium glutamicum ATCC 13032 and the transformant carrying pCGDS1 were determined according to the method of P. R. Sprinavasan, D. B. Sprinson, et al. [J. Biol. Chem., 234, 716 (1959)].

[2] = target: T1, anthranilate synthase (AS) of ATCC 39019 strain (Corynebacterium glutamicum, UniProt P06557); assay: AS activity, inhibition by tryptophan, ATCC 39019 strain; conditions: read-out: Tryptophan concentration effective for 50% inhibition of the AS activity
T1 construct: endogenous in cells; host or cells: C. glutamicum, strain printed as ATCC 39019 (ATCC 13032 earlier in the same paragraph)

[3] = target: T2, anthranilate phosphoribosyl transferase (PRT) of ATCC 39019 strain (Corynebacterium glutamicum, UniProt P06559); assay: PRT activity, inhibition by tryptophan, ATCC 39019 strain; conditions: read-out: Tryptophan concentration effective for 50% inhibition of the PRT activity
T2 construct: endogenous in cells; host or cells: C. glutamicum, strain printed as ATCC 39019 (ATCC 13032 earlier in the same paragraph)
T2 sequence (P06559 1-348): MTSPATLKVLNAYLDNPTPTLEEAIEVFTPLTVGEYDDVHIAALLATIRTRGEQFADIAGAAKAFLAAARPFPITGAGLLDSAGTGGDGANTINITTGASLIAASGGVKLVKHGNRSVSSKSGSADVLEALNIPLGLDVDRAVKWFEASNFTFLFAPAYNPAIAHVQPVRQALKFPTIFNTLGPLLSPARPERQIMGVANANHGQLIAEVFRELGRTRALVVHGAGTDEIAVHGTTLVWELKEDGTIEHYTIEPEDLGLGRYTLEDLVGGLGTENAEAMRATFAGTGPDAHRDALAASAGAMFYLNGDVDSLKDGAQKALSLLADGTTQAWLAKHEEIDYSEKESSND

[4] = target: T3, anthranilate synthase (AS) encoded by pCtrp1 (Corynebacterium glutamicum, UniProt P06557); assay: AS activity, inhibition by tryptophan, TA108 strain carrying pCtrp1; conditions: read-out: Tryptophan concentration effective for 50% inhibition of the AS activity
T3 construct: cell enzyme activity
Method: (§1) AS activities of Corynebacterium glutamicum ATCC 13032 and TA108 strains carrying pCtrp1 or pCtrp57 were determined according to the method of H. Hagino, et al. [Agric. Biol. Chem., 39, 323 (1975)], and their PRT activities were determined according to the method of J. Ito and C. Yanofsky [J. Biol. Chem., 97, 734 (1969)]. AS and PRT activities of TA108 strains carrying pCtrp1 or pCtrp57 were more than 10 times as high as those of ATCC 13032 strain.

[5] = target: T4, anthranilate phosphoribosyl transferase (PRT) encoded by pCtrp1 (Corynebacterium glutamicum, UniProt P06559); assay: PRT activity, inhibition by tryptophan, TA108 strain carrying pCtrp1; conditions: read-out: Tryptophan concentration effective for 50% inhibition of the PRT activity
T4 construct: presence of the AS, PRT, TS-α and TS-β genes in the above 11.0 Kb DNA fragment introduced into pCtrp1; expressed in transfected cells; host or cells: C. glutamicum TA108 carrying pCtrp1
T4 sequence (P06559 1-348): T2 sequence (P06559 1-348)
Method: as §1

[6] = target: T5, anthranilate phosphoribosyl transferase (PRT) encoded by pCtrp57 (Corynebacterium glutamicum, UniProt P06559); assay: PRT activity, inhibition by tryptophan, TA108 strain carrying pCtrp57; conditions: read-out: Tryptophan concentration effective for 50% inhibition of the PRT activity
T5 construct: cell enzyme activity
Method: (§2) TA108 strain carrying pCtrp1 was cultured in NB medium containing 10 μg/ml kanamycin till the latter stage of the logarithmic growth phase. The grown cells were collected and washed once with 50 mM Tris-maleate buffer solution (pH 6.0) by centrifugation. The washed cells were treated with 400 μg/ml N-methyl-N'-nitro-N-nitrosoguanidine in 50 mM Tris-maleate buffer solution at room temperature for 20 minutes. The treated cells were washed twice with 50 mM Tris-maleate buffer solution by centrifugation and cultured in NB medium containing 10 μg/ml kanamycin at 30° C. for 16 hours. A plasmid DNA was isolated from the grown cells in the same manner as in (1). TA108 strain was transformed with the plasmid thus obtained in the same manner as in (3), and the kanamycin-resistant Colonies grown on RCGP agar medium containing 200 μg/ml kanamycin were scraped up, and washed twice with physiological saline solution by centrifugation. The washed cells were spread on minimal agar medium M1 containing 3 mg/ml 5FT, and cultured at 30° C. for three days. […]
(§3) AS activities of Corynebacterium glutamicum ATCC 13032 and TA108 strains carrying pCtrp1 or pCtrp57 were determined according to the method of H. Hagino, et al. [Agric. Biol. Chem., 39, 323 (1975)], and their PRT activities were determined according to the method of J. Ito and C. […]

[7] = target: T6, anthranilate synthase (AS) encoded by pCtrp57 (Corynebacterium glutamicum, UniProt P06557); assay: AS activity, inhibition by tryptophan, TA108 strain carrying pCtrp57; conditions: read-out: Tryptophan concentration effective for 50% inhibition of the AS activity
T6 construct: cell enzyme activity
Method: as §2, §3

T6 sequence (P06558 whole entry): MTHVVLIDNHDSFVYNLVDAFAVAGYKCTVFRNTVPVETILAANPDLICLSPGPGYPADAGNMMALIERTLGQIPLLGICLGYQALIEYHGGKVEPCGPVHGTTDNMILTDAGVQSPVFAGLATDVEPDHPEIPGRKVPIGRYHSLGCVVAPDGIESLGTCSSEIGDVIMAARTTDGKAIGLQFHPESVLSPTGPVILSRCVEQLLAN
T6 sequence (P06557 whole entry): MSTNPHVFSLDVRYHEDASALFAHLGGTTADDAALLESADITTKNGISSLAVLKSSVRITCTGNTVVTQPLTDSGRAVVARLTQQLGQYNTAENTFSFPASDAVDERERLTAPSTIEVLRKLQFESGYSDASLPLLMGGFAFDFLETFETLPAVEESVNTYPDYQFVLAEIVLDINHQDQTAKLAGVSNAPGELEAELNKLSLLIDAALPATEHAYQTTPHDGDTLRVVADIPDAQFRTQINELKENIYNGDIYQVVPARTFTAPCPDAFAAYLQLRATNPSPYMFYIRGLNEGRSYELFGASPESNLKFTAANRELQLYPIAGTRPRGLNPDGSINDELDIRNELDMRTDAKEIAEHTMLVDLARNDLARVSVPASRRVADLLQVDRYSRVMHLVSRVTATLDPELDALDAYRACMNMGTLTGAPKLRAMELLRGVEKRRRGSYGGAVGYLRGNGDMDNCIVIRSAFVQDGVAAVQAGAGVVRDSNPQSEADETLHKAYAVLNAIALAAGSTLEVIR
T3 sequence (P06558 whole entry): as the sequence (P06558 whole entry) above
T3 sequence (P06557 whole entry): as the sequence (P06557 whole entry) above
T1 sequence (P06557 whole entry): as above
T1 sequence (P06558 whole entry partner): as the sequence (P06558 whole entry) above

Row | SMILES | Inhibition of DS in the transformant carrying pCGDS1 [1] | IC50 [2] [µM] | IC50 [3] [µM] | IC50 [4] [µM] | IC50 [5] [µM] | IC50 [6] [µM] | IC50 [7] [µM]
1 | N[C@@H](Cc1ccc(O)cc1)C(=O)O [tyrosine] | free from inhibition | – | – | – | – | – | –
2 | N[C@@H](Cc1ccccc1)C(=O)O [phenylalanine] | free from inhibition | – | – | – | – | – | –
3 | N[C@@H](Cc1c[nH]c2ccccc12)C(=O)O [tryptophan] | – | 2 | 190 | 8 | 190 | 4800 | 4000
